Literature values, collected in PMC3534868 (Pharmaceutical biology, 2011).
Where two headings read alike, the source gives them in different places.

How the values were obtained:
[1] = test system: KB (human oral epidermoid carcinoma); details: KB cells; for KB IC50: ref Zhang et al., 2004
[2] = test system: malaria parasite (chloroquine-sensitive and chloroquine-resistant strains); details: for in vitro activities against the malaria parasites: 2005
Col-2 = Col-2 cells; ref Zhang et al., 2004
LNCaP (prostate) = details: LNCaP cells; ref Zhang et al., 2004
LU-1 (lung) = details: LU-1 cells; ref Zhang et al., 2004
HUVEC = HUVEC cells; ref Zhang et al., 2004
hTERT = hTERT cells; ref Zhang et al., 2004

Pinoresinol [SLA7062-K004]
KB ED50 ([1]; ref Ma et al., 2008): >40 µg/mL | D6 IC50 (P. falciparum D6; ref Ma et al., 2008): 1.361 µg/mL | W2 IC50 (P. falciparum W2; ref Ma et al., 2008): 3.15 µg/mL

COc1cc([C@H](O[C@@H]2O[C@H](CO)[C@@H](O)[C@H](O)[C@H]2O)[C@H](CO)Oc2c(OC)cc(CCCO)cc2OC)ccc1O [SLA7006-K008, Rourinoside]
KB ED50 ([1]; ref He et al., 2006): >20 µg/mL | D6 IC50 (P. falciparum D6; ref He et al., 2006): 2.1 µg/mL | W2 IC50 (P. falciparum W2; ref He et al., 2006): 1.2 µg/mL | in vitro antimalarial activity ([2]; ref He et al., 2006): in vitro-active

C[C@H]1CC[C@@]2(OC1)O[C@H]1C[C@H]3[C@@H]4CC[C@@H]5C[C@@H](O[C@@H]6O[C@H](CO[C@@H]7OC[C@H](O)[C@H](O)[C@H]7O)[C@@H](O[C@@H]7OC[C@H](O)[C@H](O)[C@H]7O)[C@H](O)[C@H]6O[C@@H]6O[C@H](CO)[C@@H](O)[C@H](O)[C@H]6O)CC[C@]5(C)[C@H]4CC[C@]3(C)[C@H]1[C@@H]2C [SLA7037-K003, Asparacoside]
KB IC50 [1]: 4.8 µg/mL | Col-2 IC50 (Col-2): 5.4 µg/mL | LNCaP IC50 (LNCaP (prostate)): 10.1 µg/mL | LU-1 IC50 (LU-1 (lung)): 4.2 µg/mL | HUVEC IC50 (HUVEC): 4.1 µg/mL | hTERT IC50 (hTERT): 4.3 µg/mL

Oc1ccc(C#C/C=C/COc2ccc(O)cc2)cc1 [SLA7037-K010, Asparenydiol]
KB IC50 [1]: 2.4 µg/mL | Col-2 IC50 (Col-2): >20 µg/mL | LNCaP IC50 (LNCaP (prostate)): >20 µg/mL | LU-1 IC50 (LU-1 (lung)): 19.8 µg/mL | HUVEC IC50 (HUVEC): >20 µg/mL | hTERT IC50 (hTERT): 0.2 µg/mL

Naucleaorine [SLA7018-K006]
KB ED50 ([1]; ref He et al., 2005): 20 µg/mL | D6 IC50 (P. falciparum D6; ref He et al., 2005): 3.61 ± 0.595 µg/mL | W2 IC50 (P. falciparum W2; ref He et al., 2005): 4.192 ± 0.008 µg/mL | in vitro activities against the malaria parasites ([2]; ref He et al.): showed in vitro activities

C=C(C)[C@@H]1CC[C@]2(C(=O)O)CC[C@]3(C)[C@H](CC[C@@H]4[C@@]5(C)CC[C@H](OC(=O)/C=C/c6ccc(O)c(O)c6)C(C)(C)[C@@H]5CC[C@]43C)[C@@H]12 [SLA7062-K001, Betulinic acid 3β-caffeate]
KB ED50 ([1]; ref Ma et al., 2008): 2.5 µg/mL | D6 IC50 (P. falciparum D6; ref Ma et al., 2008): 0.87 µg/mL | W2 IC50 (P. falciparum W2; ref Ma et al., 2008): 0.607 µg/mL | in vitro antimalarial activity ([2]; chloroquine-sensitive and chloroquine-resistant strains, ref Ma et al., 2008): in vitro-active

C[C@H]1[C@H](C)CC[C@]2(C(=O)O)CC[C@]3(C)C(=CC[C@@H]4[C@@]5(C)CC[C@@H](O)[C@@](C)(CO)[C@@H]5CC[C@]43C)[C@H]12 [SLA7018-K008, 3α,23-Dihydroxy-urs-12-en-28-oic acid]
KB ED50 ([1]; ref He et al., 2005): >20 µg/mL | D6 IC50 (P. falciparum D6; ref He et al., 2005): 4.567 ± 0.702 µg/mL | W2 IC50 (P. falciparum W2; ref He et al., 2005): 6.006 ± 2.581 µg/mL

epi-Methoxy-naucleaorine [SLA7018-K002]
KB ED50 ([1]; ref He et al., 2005): >20 µg/mL | D6 IC50 (P. falciparum D6; ref He et al., 2005): 6.535 ± 0.151 µg/mL | W2 IC50 (P. falciparum W2; ref He et al., 2005): 6.979 ± 0.008 µg/mL | in vitro activities against the malaria parasites ([2]; ref He et al.): showed in vitro activities

C=C(C)[C@@H]1CC[C@]2(C(=O)O)CC[C@]3(C)[C@H](CC[C@@H]4[C@@]5(C)CC[C@H](O)C(C)(C)[C@@H]5CC[C@]43C)[C@@H]12 [SLA7062-K001a, Betulinic acid]
KB ED50 ([1]; ref Ma et al., 2008): >40 µg/mL | D6 IC50 (P. falciparum D6; ref Ma et al., 2008): 3.696 µg/mL | W2 IC50 (P. falciparum W2; ref Ma et al., 2008): 3.776 µg/mL

Gongroneside A [SLA7530-K001]
KB ED50 ([1]; ref Libman et al., 2008): >20 µg/mL | D6 IC50 (P. falciparum D6; ref Libman et al., 2008): 2.33 µg/mL | W2 IC50 (P. falciparum W2; ref Libman et al., 2008): 2.02 µg/mL | in vitro antimalarial activity ([2]; both strains of the malaria parasites, ref Libman et al., 2008): in vitro-active

CC1(C)CC[C@]2(C(=O)O)CC[C@]3(C)C(=CC[C@@H]4[C@@]5(C)CC[C@H](O)C(C)(C)[C@@H]5CC[C@]43C)[C@@H]2C1 [SLA7018-K003, Oleanolic acid]
KB ED50 ([1]; ref He et al., 2005): 21 µg/mL | D6 IC50 (P. falciparum D6; ref He et al., 2005): 2.116 ± 0.308 µg/mL | W2 IC50 (P. falciparum W2; ref He et al., 2005): 2.335 ± 0.013 µg/mL

C=C(C)[C@@H]1CC[C@]2(C(=O)O)CC[C@]3(C)[C@H](CC[C@@H]4[C@@]5(C)CC[C@H](OC(=O)/C=C/c6ccc(OC(C)=O)c(OC(C)=O)c6)C(C)(C)[C@@H]5CC[C@]43C)[C@@H]12 [SLA7062-K001b, Betulinic acid 3β-bisacetylcaffeate]
KB ED50 ([1]; ref Ma et al., 2008): 2.07 µg/mL | D6 IC50 (P. falciparum D6; ref Ma et al., 2008): 0.48 µg/mL | W2 IC50 (P. falciparum W2; ref Ma et al., 2008): 0.443 µg/mL

Rouremin [SLA7006-K005]
KB ED50 ([1]; ref He et al., 2006): >20 µg/mL | D6 IC50 (P. falciparum D6; ref He et al., 2006): 4 µg/mL | W2 IC50 (P. falciparum W2; ref He et al., 2006): 3.5 µg/mL | in vitro antimalarial activity ([2]; ref He et al., 2006): in vitro-active

3″-Hydroxy-4″-methoxy-4″-dehyroxy-nyasol [SLA7037-K007]
KB IC50 [1]: 9.0 µg/mL | Col-2 IC50 (Col-2): 11.7 µg/mL | LNCaP IC50 (LNCaP (prostate)): 11.6 µg/mL | LU-1 IC50 (LU-1 (lung)): 7.2 µg/mL | HUVEC IC50 (HUVEC): 16.4 µg/mL | hTERT IC50 (hTERT): 0.2 µg/mL

C[C@@H]1CC[C@@]2(OC1)O[C@H]1C[C@H]3[C@@H]4CCC5=CC(=O)CC[C@]5(C)[C@H]4C[C@@H](O)[C@]3(C)[C@@]1(O)[C@@H]2C [SLA7037-K001, Asparacosin A]
KB IC50 [1]: 10.7 µg/mL | Col-2 IC50 (Col-2): >20 µg/mL | LNCaP IC50 (LNCaP (prostate)): >20 µg/mL | LU-1 IC50 (LU-1 (lung)): >20 µg/mL | HUVEC IC50 (HUVEC): >20 µg/mL | hTERT IC50 (hTERT): >20 µg/mL

C=CC(/C=C\c1ccc(O)cc1)c1ccc(O)c(OC)c1 (stereo not drawn) [SLA7037-K006, 3″-Methoxy-nyasol]
KB IC50 [1]: 9.0 µg/mL | Col-2 IC50 (Col-2): 6.3 µg/mL | LNCaP IC50 (LNCaP (prostate)): 6.6 µg/mL | LU-1 IC50 (LU-1 (lung)): 4.5 µg/mL | HUVEC IC50 (HUVEC): 6.7 µg/mL | hTERT IC50 (hTERT): 1.2 µg/mL

COc1cc(OCC=CC#Cc2ccc(O)cc2)ccc1O [SLA7037-K004, 3′-Methoxy-asparenydiol]
KB IC50 [1]: 12.0 µg/mL | Col-2 IC50 (Col-2): >20 µg/mL | LNCaP IC50 (LNCaP (prostate)): >20 µg/mL | LU-1 IC50 (LU-1 (lung)): 19.7 µg/mL | HUVEC IC50 (HUVEC): >20 µg/mL | hTERT IC50 (hTERT): 0.3 µg/mL
